Test results: patent US11166959B2, “Isofuranone compounds useful as HPK1 inhibitors” (BRISTOL-MYERS SQUIBB COMPANY, priority 2017, dated 2021)
Like-named read-outs stand apart in the source and are kept apart here.

Legend:
IRAK4 = molecular target: T1, IRAK4 (Homo sapiens, UniProt Q9NWZ3); assay: IRAK4 Inhibition Assay (kinase reaction, Caliper capillary electrophoresis); type: biochemical; settings: 500 μM ATP, 11 concentrations
T1 construct: 1 nM IRAK4 (160-460); purchased SignalChem M24016
T1 sequence (Q9NWZ3 160-460): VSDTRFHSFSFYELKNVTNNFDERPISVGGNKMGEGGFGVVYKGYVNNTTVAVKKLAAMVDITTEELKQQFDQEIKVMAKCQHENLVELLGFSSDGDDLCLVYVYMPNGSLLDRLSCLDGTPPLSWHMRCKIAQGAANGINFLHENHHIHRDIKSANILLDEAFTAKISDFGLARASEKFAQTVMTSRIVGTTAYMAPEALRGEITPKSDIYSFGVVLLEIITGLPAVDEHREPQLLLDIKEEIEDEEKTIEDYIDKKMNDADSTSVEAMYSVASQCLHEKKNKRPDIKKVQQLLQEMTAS
Method: (§1) The reactions were incubated out for three hours and quenched with 1 mM EDTA solution. The reaction incubation time and enzyme concentration were optimized to obtain a maximum peptide substrate conversion of 20-30%. The reaction mixtures were analyzed by capillary electrophoresis on a Caliper LabChip EZ Reader to resolve phosphorylated and unphosphorylated peptide species and determine peptide substrate conversion. […] The compounds were dissolved in DMSO and evaluated at 11 concentrations to determine IC50 values.

HPK1 = molecular target: T2, HPK1 (Homo sapiens, UniProt Q92918); assay: HPK1 Inhibition Assay (kinase reaction, Caliper capillary electrophoresis); type: biochemical; settings: for IRAK4/HPK1 Ratio: ratio of the IRAK4 IC50 value to the HPK1 IC50 value
T2 construct: purchased SignalChem M23-11G
T2 sequence (Q92918 1-346 limits assumed): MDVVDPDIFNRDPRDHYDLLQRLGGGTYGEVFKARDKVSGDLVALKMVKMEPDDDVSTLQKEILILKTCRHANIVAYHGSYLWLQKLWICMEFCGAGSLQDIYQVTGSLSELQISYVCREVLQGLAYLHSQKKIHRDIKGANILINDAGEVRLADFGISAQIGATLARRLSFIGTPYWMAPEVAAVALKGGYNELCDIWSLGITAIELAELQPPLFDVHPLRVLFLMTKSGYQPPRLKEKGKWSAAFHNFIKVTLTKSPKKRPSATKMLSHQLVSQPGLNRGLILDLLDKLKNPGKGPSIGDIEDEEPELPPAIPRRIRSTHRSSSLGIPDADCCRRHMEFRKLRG
Method: as §1, with “to determine the IC50 values.” for “to determine IC50 values.”

[1] = 0.625 nM HPK1, 22 μM ATP, 11 concentrations, read-out: HPK1 IC50

SMILES | IC50 (IRAK4) | IC50 (HPK1; [1]) | IRAK4/HPK1 Ratio (HPK1) | IC50 (HPK1)
CC1(C)OC(=O)c2ccc(Nc3ncc(-c4nnc(-c5cccnc5)o4)c(N[C@H](CO)c4ccccc4)n3)cc21 [Example 57, 5-[(4-{[(1S)-2-hydroxy-1-phenylethyl]amino}-5-[5-(pyridin-3-yl)-1,3,4-oxadiazol-2-yl]pyrimidin-2-yl)amino]-3,3-dimethyl-1,3-dihydro-2-benzofuran-1-one] | 250 to 1000 nM | < 50 nM | C (C=>50) | 
CC1(C)OC(=O)c2ccc(Nc3ncc(-c4nnc(C5(C(F)(F)F)CC5)o4)c(N[C@H](CO)c4ccccc4)n3)cc21 [Example 68, 5-[(4-{[(1S)-2-hydroxy-1-phenylethyl]amino}-5-{5-[1-(trifluoromethyl)cyclopropyl]-1,3,4-oxadiazol-2-yl}pyrimidin-2-yl)amino]-3,3-dimethyl-1,3-dihydro-2-benzofuran-1-one] | 250 to 1000 nM | < 50 nM | B (B=10 to 50) | 
CC(C)(C)NC(=O)c1cnc(Nc2ccc3c(c2)C(C)(C)OC3=O)nc1N[C@H](CO)c1ccccc1 [Example 11, N-tert-butyl-2-[(3,3-dimethyl-1-oxo-1,3-dihydro-2-benzofuran-5-yl)amino]-4-{[(1S)-2-hydroxy-1-phenylethyl]amino}pyrimidine-5-carboxamide] | 250 to 1000 nM | < 50 nM | B (B=10 to 50) | 
CC1(C)OC(=O)c2ccc(Nc3ncc(-c4nc(C5CCOCC5)no4)c(N[C@H](CO)c4ccccc4)n3)cc21 [Example 33, 5-[(4-{[(1S)-2-hydroxy-1-phenylethyl]amino}-5-[3-(oxan-4-yl)-1,2,4-oxadiazol-5-yl]pyrimidin-2-yl)amino]-3,3-dimethyl-1,3-dihydro-2-benzofuran-1-one] | 50 to 250 nM | < 50 nM | C (C=>50) | 
CC(C)(CCCCO)c1noc(-c2cnc(Nc3ccc4c(c3)C(C)(C)OC4=O)nc2N[C@H](CO)c2ccccc2)n1 [Example 37, 5-[(4-{[(1S)-2-hydroxy-1-phenylethyl]amino}-5-[3-(6-hydroxy-2-methylhexan-2-yl)-1,2,4-oxadiazol-5-yl]pyrimidin-2-yl)amino]-3,3-dimethyl-1,3-dihydro-2-benzofuran-1-one] | 250 to 1000 nM | < 50 nM | C (C=>50) | 
CC1(C)OC(=O)c2ccc(Nc3cc(N[C@H](CO)c4ccccc4)c(-c4nnc(C5(C#N)CC5)o4)cn3)nc21 [Example 88, 1-{5-[6-({7,7-dimethyl-5-oxo-5H,7H-furo[3,4-b]pyridin-2-yl}amino)-4-{[(1S)-2-hydroxy-1-phenylethyl]amino}pyridin-3-yl]-1,3,4-oxadiazol-2-yl}cyclopropane-1-carbonitrile] | 250 to 1000 nM | < 50 nM | C (C=>50) | 
CCCc1noc(-c2cnc(Nc3ccc4c(c3)C(C)(C)OC4=O)nc2N[C@H](CO)c2ccccc2)n1 [Example 35, 5-[(4-{[(1S)-2-hydroxy-1-phenylethyl]amino}-5-(3-propyl-1,2,4-oxadiazol-5-yl)pyrimidin-2-yl)amino]-3,3-dimethyl-1,_3-dihydro-2-benzofuran-1-one] | 250 to 1000 nM | < 50 nM | C (C=>50) | 
CCOC(=O)c1cnc(Nc2ccc3c(c2)C(C)(C)OC3=O)nc1NCc1ccccc1C(C)(C)O [Example 71, Ethyl 2-[(3,3-dimethyl-1-oxo-1,3-dihydro-2-benzofuran-5-yl)amino]-4-({[2-(2-hydroxypropan-2-yl)phenyl]methyl}amino)pyrimidine-5-carboxylate] | 250 to 1000 nM | < 50 nM | B (B=10 to 50) | 
Cc1noc(-c2cnc(Nc3ccc4c(c3)C(C)(C)OC4=O)nc2Nc2ccc3[nH]ncc3c2)n1 [Example 74, 5-({4-[(1H-indazol-5-yl)amino]-5-(3-methyl-1,2,4-oxadiazol-5-yl)pyrimidin-2-yl}amino)-3,3-dimethyl-1,3-dihydro-2-benzofuran-1-one] | 250 to 1000 nM | 50 to 250 nM | B (B=10 to 50) | 
CC1(C)OC(=O)c2ccc(Nc3cc(N[C@H](CO)c4ccccc4)c(-c4nnc(C5CC5)o4)cn3)nc21 [Example 86, 2-{[5-(5-cyclopropyl-1,3,4-oxadiazol-2-yl)-4-{[(1S)-2-hydroxy-1-phenylethyl]amino}pyridin-2-yl]amino}-7,7-dimethyl-5H,7H-furo[3,4-b]pyridin-5-one] | 50 to 250 nM | < 50 nM | B (B=10 to 50) | 
CC(C)(O)C(=O)NNC(=O)c1cnc(Nc2ccc3c(c2)C(C)(C)OC3=O)nc1N[C@H](CO)c1ccccc1 [Example 60, 2-[(3,3-dimethyl-1-oxo-1,3-dihydro-2-benzofuran-5-yl)amino]-4-{[(1S)-2-hydroxy-1-phenylethyl]amino}-N′-(2-hydroxy-2-methylpropanoyl)pyrimidine-5-carbohydrazide] | 250 to 1000 nM | 50 to 250 nM | B (B=10 to 50) | 
CC(C)(O)c1nnc(-c2cnc(Nc3ccc4c(c3)C(C)(C)OC4=O)nc2N[C@H](CO)c2ccccc2)o1 [Example 61, 5-[(4-{[(1S)-2-hydroxy-1-phenylethyl]amino}-5-[5-(2-hydroxypropan-2-yl)-1,3,4-oxadiazol-2-yl]pyrimidin-2-yl)amino]-3,3-dimethyl-1,3-dihydro-2-benzofuran-1-one] | 50 to 250 nM | < 50 nM | C (C=>50) | 
CC1(C)OC(=O)c2ccc(Nc3ncc(C(=O)NCC4CN5CCC4CC5)c(N[C@H](CO)c4ccccc4)n3)cc21 (stereo partly drawn) [Example 25, N-({1-azabicyclo[2.2.2]octan-3-yl}methyl)-2-[(3,3-dimethyl-1-oxo-1,3-dihydro-2-benzofuran-5-yl)amino]-4-{[(1S)-2-hydroxy-1-phenylethyl]amino}pyrimidine-5-carboxamide] | 250 to 1000 nM |  | B (B=10 to 50) | < 50 nM
CC1(C)OC(=O)c2ccc(Nc3ncc(C(=O)NC[C@@]4(O)CN5CCC4CC5)c(N[C@H](CO)c4ccccc4)n3)cc21 [Example 24, 2-[(3,3-dimethyl-1-oxo-1,3-dihydro-2-benzofuran-5-yl)amino]-N-{[(3R)-3-hydroxy-1-azabicyclo[2.2.2]octan-3-yl]methyl}-4-{[(1S)-2-hydroxy-1-phenylethyl]amino}pyrimidine-5-carboxamide] | 250 to 1000 nM |  | B (B=10 to 50) | < 50 nM
CC1(C)OC(=O)c2ccc(Nc3ncc(-c4nc(N5CCOCC5)no4)c(N[C@H](CO)c4ccccc4)n3)cc21 [Example 31, 5-[(4-{[(1S)-2-hydroxy-1-phenylethyl]amino}-5-[3-(morpholin-4-yl)-1,2,4-oxadiazol-5-yl]pyrimidin-2-yl)amino]-3,3-dimethyl-1,3-dihydro-2-benzofuran-1-one] | 50 to 250 nM | < 50 nM | C (C=>50) | 
O=C1OC2(CCCC2)c2nc(Nc3cc(N[C@H](CO)c4ccccc4)c(-c4nc(C5CC5)no4)cn3)ccc21 [Example 87, (S)-2′-((5-(3-cyclopropyl-1,2,4-oxadiazol-5-yl)-4-((2-hydroxy-1-phenylethyl)amino)pyridin-2-yl)amino)-5′H-spiro[cyclopentane-1,7′-furo[3,4-b]pyridin]-5′-one] | 50 to 250 nM | < 50 nM | B (B=10 to 50) | 
CC1(C)OC(=O)c2ccc(Nc3ncc(-c4nc(C5CC5)no4)c(Nc4ccc5[nH]ncc5c4)n3)cc21 [Example 75, 5-{[5-(3-cyclopropyl-1,2,4-oxadiazol-5-yl)-4-[(1H-indazol-5-yl)amino]pyrimidin-2-yl]amino}-3,3-dimethyl-1,3-dihydro-2-benzofuran-1-one] | 250 to 1000 nM | 50 to 250 nM | B (B=10 to 50) | 
CC1(C)OC(=O)c2ccc(Nc3ncc(-c4nnc(C5(OC(=O)N6CC(F)(F)C6)CC5)o4)c(N[C@H](CO)c4ccccc4)n3)cc21 [Example 70, 1-(5-{2-[(3,3-dimethyl-1-oxo-1,3-dihydro-2-benzofuran-5-yl)amino]-4-{[(1S)-2-hydroxy-1-phenylethyl]amino}pyrimidin-5-yl}-1,3,4-oxadiazol-2-yl)cyclopropyl 3,3-difluoroazetidine-1-carboxylate] | 250 to 1000 nM | 50 to 250 nM | B (B=10 to 50) | 
